Test results as given in PubChem BioAssay AID330 (DTP/NCI, 2004).
Several values for one entry are separate records, joined by “and”; a condition that tells them apart may be missing. Identical values can stand only once. Inconclusive results and toxic doses are left out. How the source made its calls: active means survival T/C of 150% or more; inactive means T/C below 125% in these data.

Test system: P388 leukemia ip, CD2F1 mice, survival T/C
Assay: NCI In Vivo Anticancer Drug Screen. Data for tumor model P388 Leukemia (intraperitoneal) in CD2F1 (CDF1) mice
Conditions: endpoint: median survival time, higher = longer survival
Method in brief: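 Mice carrying the transplanted tumor received test compound or vehicle. Survival was recorded in each group, and the value is the treated-group measurement divided by that of the vehicle-treated control group.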

[1] = dose: 100.0 mg/kg/injection, schedule: Q01DX001 (ip), vehicle: saline
[2] = dose: 200.0 mg/kg/injection, schedule: Q01DX001 (ip), vehicle: saline
[3] = dose: 400.0 mg/kg/injection, schedule: Q01DX001 (ip), vehicle: saline
[4] = dose: 50.0 mg/kg/injection, schedule: Q01DX009 (ip), vehicle: saline with Tween-80
[5] = dose: 100.0 mg/kg/injection, schedule: Q01DX009 (ip), vehicle: saline with Tween-80
[6] = dose: 50.0 mg/kg/injection, schedule: Q01DX009 (ip), vehicle: saline
[7] = dose: 50.0 mg/kg/injection, schedule: Q01DX005 (ip), vehicle: Klucel (hydroxypropylcellulose) (HPC)
[8] = dose: 100.0 mg/kg/injection, schedule: Q01DX005 (ip), vehicle: Klucel (hydroxypropylcellulose) (HPC)
[9] = dose: 200.0 mg/kg/injection, schedule: Q01DX005 (ip), vehicle: Klucel (hydroxypropylcellulose) (HPC)
[10] = dose: 50.0 mg/kg/injection, schedule: Q01DX005 (ip), vehicle: saline with Tween-80
[11] = dose: 100.0 mg/kg/injection, schedule: Q01DX005 (ip), vehicle: saline with Tween-80
[12] = dose: 200.0 mg/kg/injection, schedule: Q01DX005 (ip), vehicle: saline with Tween-80
[13] = dose: 60.0 mg/kg/injection, schedule: Q01DX005 (ip), vehicle: saline with Tween-80
[14] = dose: 120.0 mg/kg/injection, schedule: Q01DX005 (ip), vehicle: saline with Tween-80
[15] = dose: 240.0 mg/kg/injection, schedule: Q01DX005 (ip), vehicle: saline with Tween-80

Measured: T/C

CCCC(C)/C=C(\C)C(O)C(C)/C=C/CCC(O)C(C)C(O)C(C)C(O)C(C)C1OC(C(C)C(=O)OC)CCC1C (stereo not given)
inactive: dose: 12.5 mg/kg/injection, schedule: Q01DX005 (ip), vehicle: dimethyl formamide 111 % of control | dose: 25.0 mg/kg/injection, schedule: Q01DX005 (ip), vehicle: dimethyl formamide 108 % of control | dose: 50.0 mg/kg/injection, schedule: Q01DX005 (ip), vehicle: dimethyl formamide 102 % of control

Cn1ncc2c(=O)[nH]cnc21
inactive: dose: 50.0 mg/kg/injection, schedule: Q01DX009 (ip), vehicle: Klucel (hydroxypropylcellulose) (HPC) 93 % of control | dose: 100.0 mg/kg/injection, schedule: Q01DX009 (ip), vehicle: Klucel (hydroxypropylcellulose) (HPC) 93 % of control | dose: 200.0 mg/kg/injection, schedule: Q01DX009 (ip), vehicle: Klucel (hydroxypropylcellulose) (HPC) 96 % of control | dose: 400.0 mg/kg/injection, schedule: Q01DX009 (ip), vehicle: Klucel (hydroxypropylcellulose) (HPC) 97 % of control

CCSC(=Nc1nc2ccc([N+](=O)[O-])cc2s1)SCC
inactive: dose: 6.25 mg/kg/injection, schedule: Q01DX009 (ip), vehicle: Klucel (hydroxypropylcellulose) (HPC) 104 % of control | dose: 12.5 mg/kg/injection, schedule: Q01DX009 (ip), vehicle: Klucel (hydroxypropylcellulose) (HPC) 111 % of control | dose: 25.0 mg/kg/injection, schedule: Q01DX009 (ip), vehicle: Klucel (hydroxypropylcellulose) (HPC) 98 % of control

C=C1CC2(CC3C4CC3CC2C4)OC1=O (stereo not given)
inactive: [1] 98 % of control | [2] 99 % of control | [3] 100 % of control

CCOC1CC2CCCN2O1 (stereo not given)
inactive: dose: 75.0 mg/kg/injection, schedule: Q01DX009 (ip), vehicle: saline 103 % of control | dose: 150.0 mg/kg/injection, schedule: Q01DX009 (ip), vehicle: saline 100 % of control | dose: 300.0 mg/kg/injection, schedule: Q01DX009 (ip), vehicle: saline 94 % of control

COc1ccc(C(=O)c2ncccc2C(=O)O)cc1OC
inactive: dose: 25.0 mg/kg/injection, schedule: Q01DX009 (ip), vehicle: other 93 % of control | dose: 50.0 mg/kg/injection, schedule: Q01DX009 (ip), vehicle: other 88 % of control | dose: 100.0 mg/kg/injection, schedule: Q01DX009 (ip), vehicle: other 100 % of control | dose: 200.0 mg/kg/injection, schedule: Q01DX009 (ip), vehicle: other 97 % of control | dose: 400.0 mg/kg/injection, schedule: Q01DX009 (ip), vehicle: other 94 % of control

CCOC(CBr)(OCC)OCC
inactive: dose: 25.0 mg/kg/injection, schedule: Q01DX009 (ip), vehicle: saline with Tween-80 94 % of control | [4] 113 % of control | [5] 113 % of control

O=[N+]([O-])C1(Cl)CCC(Cl)([N+](=O)[O-])CC1 (stereo not given)
inactive: dose: 100.0 mg/kg/injection, schedule: Q01DX001 (ip), vehicle: Klucel (hydroxypropylcellulose) (HPC) 100 % of control | dose: 200.0 mg/kg/injection, schedule: Q01DX001 (ip), vehicle: Klucel (hydroxypropylcellulose) (HPC) 104 % of control

CN1CCCC1=O
inactive: [6] 95 % of control

COc1cc2c(c(OC)c1OC)-c1c(cc3c(c1OC)OCO3)C1OC2C(C)C1C (stereo not given) (tested in a mixture with another compound)
inactive: dose: 25.0 mg/kg/injection, schedule: Q01DX005 (ip), vehicle: Klucel (hydroxypropylcellulose) (HPC) 100 % of control | [7] 97 % of control | [8] 100 % of control and 101 % of control | [9] 103 % of control and 106 % of control | dose: 400.0 mg/kg/injection, schedule: Q01DX005 (ip), vehicle: Klucel (hydroxypropylcellulose) (HPC) 99 % of control

NNc1nc(N2CCCCC2)ns1
inactive: dose: 2.5 mg/kg/injection, schedule: Q01DX009 (ip), vehicle: saline with Tween-80 98 % of control | dose: 5.0 mg/kg/injection, schedule: Q01DX009 (ip), vehicle: saline with Tween-80 110 % of control | dose: 10.0 mg/kg/injection, schedule: Q01DX009 (ip), vehicle: saline with Tween-80 120 % of control

Cn1c(=O)ccc2ccc(N(CCO)CCO)nc21
inactive: dose: 50.0 mg/kg/injection, schedule: Q04DX003 (ip), vehicle: saline with Tween-80 98 % of control | dose: 100.0 mg/kg/injection, schedule: Q04DX003 (ip), vehicle: saline with Tween-80 94 % of control | dose: 200.0 mg/kg/injection, schedule: Q04DX003 (ip), vehicle: saline with Tween-80 103 % of control

CCCCCCC(=O)/C=C/c1ccc(Br)cc1
inactive: [10] 104 % of control | [11] 104 % of control | [12] 97 % of control

Cc1nc(Nc2ccccc2)c2c(-c3ccccc3)c[nH]c2n1
inactive: [7] 89 % of control | [8] 90 % of control | [9] 100 % of control

CC(=O)c1cc2ccccc2c2ccccc12
inactive: [10] 98 % of control | [11] 98 % of control | [12] 96 % of control

COC(=O)C1=C/CCCN(C(c2ccccc2)c2ccccc2)/C=C\1C(=O)OC
inactive: [1] 99 % of control | [2] 91 % of control | [3] 95 % of control

COC(=O)C1(c2ccccc2)N=C(c2ccc(C)cc2)ON1c1ccccc1 (stereo not given)
inactive: [13] 107 % of control | [14] 95 % of control | [15] 92 % of control

CCOC(=O)c1cc2c(OC)c(OC)ccc2c2[nH]cc(C#N)c(=O)c12
inactive: dose: 12.5 mg/kg/injection, schedule: Q01DX009 (ip), vehicle: distilled water + Tween-80 100 % of control | dose: 25.0 mg/kg/injection, schedule: Q01DX009 (ip), vehicle: distilled water + Tween-80 94 % of control | dose: 50.0 mg/kg/injection, schedule: Q01DX009 (ip), vehicle: distilled water + Tween-80 93 % of control | dose: 100.0 mg/kg/injection, schedule: Q01DX009 (ip), vehicle: distilled water + Tween-80 90 % of control | dose: 200.0 mg/kg/injection, schedule: Q01DX009 (ip), vehicle: distilled water + Tween-80 86 % of control

CCc1cccc2c(NCCCCCCNc3c4ccccc4nc4c(CC)cccc34)c3ccccc3nc12
inactive: dose: 0.63 mg/kg/injection, schedule: Q01DX009 (ip), vehicle: other 113 % of control | dose: 1.25 mg/kg/injection, schedule: Q01DX009 (ip), vehicle: other 109 % of control | dose: 2.5 mg/kg/injection, schedule: Q01DX009 (ip), vehicle: other 112 % of control | dose: 3.75 mg/kg/injection, schedule: Q01DX009 (ip), vehicle: other 105 % of control | dose: 5.0 mg/kg/injection, schedule: Q01DX009 (ip), vehicle: other 110 % of control | dose: 7.5 mg/kg/injection, schedule: Q01DX009 (ip), vehicle: other 114 % of control | dose: 15.0 mg/kg/injection, schedule: Q01DX009 (ip), vehicle: other 96 % of control

CCOC(=O)/C(C#N)=C/P(=O)(OCC)OCC
inactive: dose: 3.12 mg/kg/injection, schedule: Q04DX003 (ip), vehicle: Klucel (hydroxypropylcellulose) (HPC) 101 % of control | dose: 6.25 mg/kg/injection, schedule: Q04DX003 (ip), vehicle: Klucel (hydroxypropylcellulose) (HPC) 100 % of control | dose: 12.5 mg/kg/injection, schedule: Q04DX003 (ip), vehicle: Klucel (hydroxypropylcellulose) (HPC) 99 % of control

Cc1ccn(C)c(=N)c1
inactive: [4] 118 % of control | [5] 100 % of control | dose: 200.0 mg/kg/injection, schedule: Q01DX009 (ip), vehicle: saline with Tween-80 104 % of control

CCCNC(=O)OCc1cnc2ccc(OC)cc2c1COC(=O)NCCC
inactive: [7] 96 % of control | [8] 96 % of control | [9] 93 % of control

Fc1cccc(Cl)c1C(Nc1nc2ccccc2s1)Nc1nc2ccccc2s1
inactive: dose: 60.0 mg/kg/injection, schedule: Q01DX005 (ip), vehicle: Klucel (hydroxypropylcellulose) (HPC) 98 % of control | dose: 120.0 mg/kg/injection, schedule: Q01DX005 (ip), vehicle: Klucel (hydroxypropylcellulose) (HPC) 101 % of control | dose: 240.0 mg/kg/injection, schedule: Q01DX005 (ip), vehicle: Klucel (hydroxypropylcellulose) (HPC) 95 % of control

CN1CCC(c2ccccc2)C(O)C1 (stereo not given)
inactive: [13] 106 % of control | [14] 105 % of control | [15] 103 % of control

NCC(CC(=O)O)c1ccc(Cl)cc1 (stereo not given)
inactive: [7] 94 % of control | [8] 93 % of control

O=S(=O)(Cl)C(F)(F)C(F)(F)C(F)(F)C(F)(F)F
inactive: [6] 102 % of control | dose: 100.0 mg/kg/injection, schedule: Q01DX009 (ip), vehicle: saline 103 % of control | dose: 200.0 mg/kg/injection, schedule: Q01DX009 (ip), vehicle: saline 88 % of control
